Laboratory results published in ChEMBL document CHEMBL4043066, “Drug Discovery Targeting Bromodomain-Containing Protein 4” (J Med Chem, 2017).

Legend:
[1] = molecular target: T1, Bromodomain-containing protein 4 (Homo sapiens, UniProt O60885); assay: Inhibition of GST-tagged BRD4 (unknown origin) using biotinylated acetyl-histone H4 peptide as substrate after 30 mins by AlphaScreen assay
MX1 [2] = assay: Antiproliferative activity against human MX1 cells incubated for >= 72 hrs by CellTiter-Glo assay; type: functional, cell-based; details: MX1, 72 h
[3] = molecular target: T1, Bromodomain-containing protein 4; assay: Inhibition of His-tagged BRD4 bromodomain 2 (E352 to E168 residues) (unknown origin) after 1 hr by TR-FRET assay
[4] = molecular target: T1, Bromodomain-containing protein 4; assay: Inhibition of His-tagged BRD4 bromodomain 1 (K57 to E168 residues) (unknown origin) after 1 hr by TR-FRET assay
MV4-11 [5] = assay: Antiproliferative activity against human MV4-11 cells; type: functional, cell-based
[6] = molecular target: T1, Bromodomain-containing protein 4; assay: Inhibition of recombinant human His-tagged BRD4 bromodomain 1 (44 to 168 residues) expressed in Escherichia coli BL21(DE3) after 30 mins by AlphaScreen assay
MV4-11 [7] = assay: Antiproliferative activity against human MV4-11 cells after 4 days by CellTiter-Glo assay; type: functional, cell-based; details: MV4-11, 96 h
[8] = molecular target: T1, Bromodomain-containing protein 4; assay: Inhibition of biotin-labeled acetylated peptide binding to BRD4 bromodomain 1 (unknown origin) expressed in Escherichia coli BL21 after 1 hr by BROMOscan assay
[9] = molecular target: T1, Bromodomain-containing protein 4; assay: Inhibition of His-tagged BRD4 (unknown origin) using acetyl-histone H4 as substrate after 35 mins by TR-FRET assay
CREB-binding protein = CREB-binding protein (Homo sapiens, UniProt Q92793); assay: Inhibition of His-tagged CREBP (unknown origin) using acetyl-histone H4 as substrate after 35 mins by AlphaScreen assay
Sequence of CREB-binding protein (Q92793 whole entry, the tested form may be a part): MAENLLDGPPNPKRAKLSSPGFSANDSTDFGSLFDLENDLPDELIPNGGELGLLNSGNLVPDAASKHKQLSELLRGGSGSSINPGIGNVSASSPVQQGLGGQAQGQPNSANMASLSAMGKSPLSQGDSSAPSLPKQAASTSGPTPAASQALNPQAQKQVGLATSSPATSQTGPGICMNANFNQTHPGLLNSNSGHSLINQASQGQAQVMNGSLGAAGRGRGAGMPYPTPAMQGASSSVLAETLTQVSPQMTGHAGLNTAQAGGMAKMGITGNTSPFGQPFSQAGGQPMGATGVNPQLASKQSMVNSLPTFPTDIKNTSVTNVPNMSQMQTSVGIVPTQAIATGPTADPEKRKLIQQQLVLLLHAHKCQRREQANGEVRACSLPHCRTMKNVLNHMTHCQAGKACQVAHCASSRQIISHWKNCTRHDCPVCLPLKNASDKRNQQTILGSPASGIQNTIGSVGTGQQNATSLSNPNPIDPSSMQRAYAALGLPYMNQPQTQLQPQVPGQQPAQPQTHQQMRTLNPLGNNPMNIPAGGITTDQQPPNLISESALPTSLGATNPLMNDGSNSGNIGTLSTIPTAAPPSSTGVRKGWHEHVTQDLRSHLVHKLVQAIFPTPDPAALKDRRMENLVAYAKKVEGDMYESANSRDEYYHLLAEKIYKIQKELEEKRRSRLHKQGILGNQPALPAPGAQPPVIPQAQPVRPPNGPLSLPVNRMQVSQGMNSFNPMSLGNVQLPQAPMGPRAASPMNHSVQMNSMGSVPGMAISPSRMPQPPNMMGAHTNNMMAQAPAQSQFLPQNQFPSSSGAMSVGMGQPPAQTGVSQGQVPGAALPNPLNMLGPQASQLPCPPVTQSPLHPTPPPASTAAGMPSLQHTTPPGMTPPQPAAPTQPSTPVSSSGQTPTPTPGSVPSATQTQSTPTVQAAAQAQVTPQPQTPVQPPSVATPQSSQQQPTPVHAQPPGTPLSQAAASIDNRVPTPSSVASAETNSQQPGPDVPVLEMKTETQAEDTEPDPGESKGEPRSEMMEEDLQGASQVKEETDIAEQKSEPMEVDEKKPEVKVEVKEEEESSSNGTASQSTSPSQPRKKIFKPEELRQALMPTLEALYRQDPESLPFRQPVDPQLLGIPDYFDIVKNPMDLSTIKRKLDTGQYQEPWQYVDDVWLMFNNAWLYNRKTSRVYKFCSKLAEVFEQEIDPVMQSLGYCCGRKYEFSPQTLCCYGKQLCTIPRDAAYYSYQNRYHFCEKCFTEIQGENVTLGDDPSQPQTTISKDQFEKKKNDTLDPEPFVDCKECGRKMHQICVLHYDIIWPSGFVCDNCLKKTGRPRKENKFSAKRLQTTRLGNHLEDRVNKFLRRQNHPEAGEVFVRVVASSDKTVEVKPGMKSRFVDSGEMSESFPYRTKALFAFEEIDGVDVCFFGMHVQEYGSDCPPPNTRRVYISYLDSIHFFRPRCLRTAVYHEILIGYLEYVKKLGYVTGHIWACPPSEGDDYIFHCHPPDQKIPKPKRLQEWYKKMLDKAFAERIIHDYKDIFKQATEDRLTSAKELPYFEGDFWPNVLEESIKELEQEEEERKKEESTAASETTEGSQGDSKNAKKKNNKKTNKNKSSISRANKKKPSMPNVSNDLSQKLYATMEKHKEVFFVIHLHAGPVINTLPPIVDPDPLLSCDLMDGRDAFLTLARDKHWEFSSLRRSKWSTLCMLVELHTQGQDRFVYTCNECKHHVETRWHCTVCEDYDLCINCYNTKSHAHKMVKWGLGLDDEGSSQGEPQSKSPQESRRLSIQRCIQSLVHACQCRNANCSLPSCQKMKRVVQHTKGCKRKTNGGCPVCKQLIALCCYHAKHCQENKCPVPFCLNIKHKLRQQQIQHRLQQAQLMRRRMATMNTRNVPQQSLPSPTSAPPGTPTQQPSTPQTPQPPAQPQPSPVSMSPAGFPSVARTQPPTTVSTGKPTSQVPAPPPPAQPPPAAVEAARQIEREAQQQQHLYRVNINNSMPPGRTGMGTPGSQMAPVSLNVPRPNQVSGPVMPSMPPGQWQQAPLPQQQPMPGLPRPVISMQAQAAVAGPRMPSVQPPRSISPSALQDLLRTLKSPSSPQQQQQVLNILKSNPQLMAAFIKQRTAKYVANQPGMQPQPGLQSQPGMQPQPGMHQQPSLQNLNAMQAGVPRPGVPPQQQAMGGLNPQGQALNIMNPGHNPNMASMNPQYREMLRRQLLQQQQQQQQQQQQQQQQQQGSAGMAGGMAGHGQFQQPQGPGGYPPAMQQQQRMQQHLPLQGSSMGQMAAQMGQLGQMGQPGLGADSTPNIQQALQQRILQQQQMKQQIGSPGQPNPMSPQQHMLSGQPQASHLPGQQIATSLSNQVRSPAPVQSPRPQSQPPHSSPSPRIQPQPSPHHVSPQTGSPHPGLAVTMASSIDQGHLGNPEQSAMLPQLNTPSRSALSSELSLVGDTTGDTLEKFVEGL

[10] = molecular target: T1, Bromodomain-containing protein 4; assay: Inhibition of GST-tagged BRD4 bromodomain 1 (44 to 168 residues) (unknown origin) using biotinylated acetyl-histone H4 peptide as substrate after 30 mins in dark by AlphaScreen assay
MV4-11 [11] = assay: Antiproliferative activity against human MV4-11 cells after 72 hrs by alamarBlue assay; type: functional, cell-based; details: MV4-11, 72 h
MV4-11 [12] = assay: Downregulation of BRD4 in human MV4-11 cells at 100 nM after 18 hrs by immunoblot analysis relative to control; type: functional
[13] = molecular target: T1, Bromodomain-containing protein 4
Description: Displacement of Halo-tagged histone H3.3 from NanoLuc-tagged full length BRD4 (unknown origin) expressed in HCT116 cells after 18 hrs by NanoBRET assay

[14] = molecular target: T1, Bromodomain-containing protein 4; remark: listed apart in the source
Description: Displacement of Halo-tagged histone H3.3 from N-terminal NanoLuc-tagged BRD4 bromodomain 1 (44 to 168 residues) (unknown origin) expressed in HCT116 cells after 18 hrs by NanoBRET assay

MV4-11 [15] = assay: Antitumor activity against human MV4-11 cells harboring MLL-AF4 xenografted in mouse assessed as tumor growth inhibition at 1 mg/kg, po qd up to 28 days relative to control; type: functional; details: MV4-11, po, 672 h, read-out: TGI
NCI-H187 = assay: Antitumor activity against human NCI-H187 cells xenografted subcutaneously in mouse assessed as tumor growth inhibition at 5 mg/kg, po relative to control; type: functional; details: read-out: TGI
[16] = molecular target: T1, Bromodomain-containing protein 4; assay: Inhibition of recombinant human N-terminal His6-tagged BRD4 bromodomain 1 expressed in Escherichia coli BL21(DE3) using biotinylated histone peptide as substrate after 60 mins by TR-FRET assay
[17] = molecular target: T1, Bromodomain-containing protein 4; assay: Inhibition of BRD4 bromodomain 1 (unknown origin) using biotinylated substrate after 1 hr by AlphaLisa assay
[18] = Metabolic stability in CD1 mouse liver microsomes assessed as compound remaining at 1 uM after 30 mins in presence of NADPH by LC/MS analysis; type: ADME, microsome; details: read-out: Stability
[19] = Metabolic stability in human liver microsomes assessed as compound remaining at 1 uM after 30 mins in presence of NADPH by LC/MS analysis; type: ADME, microsome; details: read-out: Stability
MX1 [20] = assay: Antiproliferative activity against human MX1 cells after 72 hrs by CellTiter-Glo assay; type: functional, cell-based; details: MX1, 72 h
[21] = molecular target: T1, Bromodomain-containing protein 4; assay: Inhibition of recombinant His-tagged BRD4 bromodomain 1 (K57 to E168 residues) (unknown origin) after 1 hr by TR-FRET assay
[22] = molecular target: T1, Bromodomain-containing protein 4; assay: Inhibition of recombinant His-tagged BRD4 bromodomain 2 (E352 to E168 residues) (unknown origin) after 1 hr by TR-FRET assay
[23] = Antitumor activity against human JJN3R cells xenografted subcutaneously in mouse assessed as tumor growth inhibition at 1 mg/kg, po relative to control; type: functional; details: JJN-3R, read-out: TGI
[24] = molecular target: Bromodomain-containing protein 4 (Homo sapiens, UniProt O60885, Y390A); assay: Inhibition of recombinant human N-terminal His6-tagged BRD4 bromodomain 2 (1 to 477 residues) Y390A mutant after 30 mins in dark by TR-FRET assay
[25] = test system: Bromodomain-containing protein 4 (Homo sapiens), O60885 [UNDEFINED MUTATION]; assay: Selectivity ratio of IC50 for recombinant human N-terminal His6-tagged BRD4 bromodomain 1 (1 to 477 residues) Y97A mutant to IC50 for recombinant human N-terminal His6-tagged BRD4 bromodomain 2 (1 to 477 residues) Y390A mutant

Molecule Cc1noc(C)c1-c1ccc2c(c1)C(c1ccccc1)N(CC1CCN(C)CC1)C(=O)N2 (centres undefined) has an IC50 [1] of 31 nM.
Molecule Cc1[nH]c(-c2ccccc2NC2CCCCC2F)cc1C(N)=O (centres undefined) has an EC50 (MX1 [2]) of 433 nM.
Cn1cc(-c2cc(S(C)(=O)=O)ccc2N[C@H]2CC[C@H](NCc3ccc4ccccc4c3)CC2)c2cc[nH]c2c1=O gave a Ki [3] of 2.2 nM, an EC50 (MX1 [2]) of 10 nM and a Ki [4] of 1.1 nM.
Cc1noc(C)c1-c1ccc2c(c1)[C@H](c1ccccc1)N(C)C2=O showed an IC50 [1] of 14 nM.
CC1=C(C)C2C(c3ccc(Cl)cc3)=N[C@@H](CC(=O)NCCOCCOCCOCCOCCOCCOCCOCCNC(=O)C[C@@H]3N=C(c4ccc(Cl)cc4)c4c(sc(C)c4C)-n4c(C)nnc43)c3nnc(C)n3C2S1 (some centres undefined) gave an IC50 (MV4-11 [5]) of 0.17 nM and an IC50 [6] of 3.1 nM.
Cc1sc2c(c1C)C(c1ccc(Cl)cc1)=N[C@@H](CC(=O)OC(C)(C)C)c1nnc(C)n1-2 showed an IC50 (MV4-11 [5]) of 72 nM.
For CCn1nc(C)c2c1C(=O)N(c1cc(C)c(=O)n(C)c1)C2c1ccc(Cl)cc1F (centres undefined), the IC50 (MV4-11 [7]) was 7.7 nM.
Molecule Cc1sc2c(c1C)C(c1ccc(Cl)cc1)=N[C@H](CC(=O)OC1CCC(O)CC1)c1nnc(C)n1-2 (some centres undefined) has a Kd [8] of 1.3 nM.
With Cc1cc(N2C(=O)c3c(c(CO)nn3C3CC3)[C@H]2c2ccc(Cl)cc2)cn2c(C)nnc12 the IC50 [9] was under 11 nM, the IC50 (CREB-binding protein) was 1400 nM and the IC50 (MV4-11 [7]) was 9.4 nM.
CCS(=O)(=O)Nc1cc(-c2cn(C)c(=O)c3[nH]ccc23)c(Oc2ccc(F)cc2F)cc1CN1CCOCC1 showed an EC50 (MX1 [2]) of 16 nM.
With COC[C@@H](C)n1c(-c2cn3c(C)nnc3c(NC(C)C)n2)nc2cc3c(cc21)N(C(C)C)S(=O)(=O)C3(C)C the IC50 [10] was 17 nM.
Molecule CNC(=O)N1N=C(c2ccc(N3C[C@H]4CC[C@@H](C3)O4)cc2)c2cc(OC)c(OC)cc2C[C@@H]1C has an IC50 (MV4-11 [11]) of 30 nM.
COc1ccc(S(=O)(=O)Nc2cccc(Oc3ccc(S(C)(=O)=O)cc3-c3cn(C)c(=O)c4[nH]ccc34)c2)cc1 showed an EC50 (MX1 [2]) of 97 nM.
For Cc1sc2c(c1C)C(c1ccc(Cl)cc1)=N[C@@H](CC(=O)NCCCCNC(=O)COc1cccc3c1C(=O)N(C1CCC(=O)NC1=O)C3=O)c1nnc(C)n1-2 (some centres undefined), the Activity (MV4-11 [12]) was over 80%.
In the case of COc1nnc2ccc(N3CCC(c4ccc(OCCN5CCN(C)C(=O)[C@H]5C)cc4)CC3)nn12 [AZD-5153], the IC50 [13] is reported as 5 nM, the IC50 [14] is reported as 1600 nM and the inhibition in vivo at 1 mg/kg (MV4-11 [15]) is reported as 72%.
Work on Cc1nnn(C)c1-c1cnc2c3ccc(C(C)(C)O)c(F)c3n([C@H](c3ccccc3)C3CCOCC3)c2c1 yielded an inhibition in vivo at 5 mg/kg (NCI-H187) of 100% and an IC50 [16] of under 5 nM.
Cc1nnc2c(NC(C)C)nc(-c3nc4cnc(N5CCOC[C@H]5C)cc4n3C(C)CC3CC3)cn12 (some centres undefined) gave an IC50 [10] of 9 nM.
Work on CCNC(=O)CC1N=C(c2c(F)cccc2F)c2cc(OC)ccc2-c2cn(C)c(=O)cc21 (centres undefined) yielded an IC50 [17] of under 0.5 nM and an EC50 (MV4-11 [11]) of 13 nM.
COc1cc2c(cc1-c1c(C)noc1C)ncc1nc(C3CCOCC3)n([C@H](C)COC(F)F)c12 showed a remaining at 0.5 h, 1 µM [18] of 56% and a remaining at 0.5 h, 1 µM [19] of 43%.
For CCOc1cc(=O)n(C)cc1-c1cc(NC(=O)CCc2ccccc2)ccc1Oc1ccc(F)cc1F, the EC50 (MX1 [20]) was 398 nM, the IC50 [21] was 69 nM and the IC50 [22] was 11 nM.
Cc1noc(C)c1-c1ccc2c(c1)C(c1ccccc1)N1CCCOC21 (centres undefined) showed an IC50 [1] of 36 nM.
For [2H]C([2H])([2H])c1nnn(C)c1-c1cnc2c3ccc(C(C)(C)O)c(F)c3n([C@H](c3ccccc3)C3CCOCC3)c2c1, the inhibition in vivo at 1 mg/kg [23] was 103% and the IC50 [16] was under 5 nM.
In the case of CC(=O)N1c2ccc(C#N)cc2[C@H](Nc2ncccc2F)[C@@H](C)[C@@H]1C1CC1, the IC50 [24] is reported as under 100 nM and the Ratio IC50 [25] is reported as 100.
Work on CCOC(=O)CC1N=C(c2ccc(Cl)cc2)c2cc(OC)ccc2-c2cn(C)c(=O)cc21 (centres undefined) yielded an IC50 [17] of 3 nM and an EC50 (MV4-11 [11]) of 2 nM.
